Measured values from the NIST ThermoML archive (doi:10.1016/j.fluid.2015.03.033).
Values joined by “and” are separate entries in the source; they are usually repeats but may differ in a detail not shown here. Identical values can stand only once. ± gives the expanded uncertainty stated by the source.

Experiments:
[1] = Liquid, Closed cell (Static) method
[2] = excess molar enthalpy (molar enthalpy of mixing); xn = mol fraction of the nth substance listed; settings: 303.15 K, 100 kPa, Liquid, Calvet calorimetry

Cc1cnccn1 [2-methylpyrazine]
[1]
Settings | vapor or sublimation pressure [kPa]
263.72 K | 0.109 ± 0.06
273.47 K | 0.23 ± 0.06
283.27 K | 0.457 ± 0.06
293.24 K | 0.866 ± 0.021
303.18 K | 1.563 ± 0.012
313.12 K | 2.697 ± 0.014
323.13 K | 4.476 ± 0.018
333.11 K | 7.151 ± 0.024
343.05 K | 11.03 ± 0.033
353.03 K | 16.61 ± 0.046
362.95 K | 24.08 ± 0.059

Cc1cnccn1 [2-methylpyrazine] + C1CCCCC1
[2]
Settings | excess molar enthalpy [kcal/mol]
x1 = 0.094 | 0.163 ± 0.017
x1 = 0.153 | 0.234 ± 0.0237
x1 = 0.251 | 0.308 ± 0.0311
x1 = 0.381 | 0.356 ± 0.0359
x1 = 0.474 | 0.364 ± 0.0359
x1 = 0.566 | 0.36 ± 0.0359
x1 = 0.639 | 0.331 ± 0.0335
x1 = 0.766 | 0.242 ± 0.0239
x1 = 0.845 | 0.175 ± 0.0179

Cc1cnccn1 [2-methylpyrazine] + CCCCCCC
[2]
Settings | excess molar enthalpy [kcal/mol]
x1 = 0.082 | 0.135 ± 0.0146
x1 = 0.175 | 0.257 ± 0.0263
x1 = 0.335 | 0.353 ± 0.0359
x1 = 0.411 | 0.369 ± 0.0359
x1 = 0.481 | 0.37 ± 0.0359
x1 = 0.523 | 0.369 ± 0.0359
x1 = 0.622 | 0.344 ± 0.0335
x1 = 0.704 | 0.298 ± 0.0287
x1 = 0.809 | 0.231 ± 0.0234
x1 = 0.877 | 0.167 ± 0.0172

Cc1cnccn1 [2-methylpyrazine] + Cc1ccccc1
[2]
Settings | excess molar enthalpy [kcal/mol]
x1 = 0.156 | 0.00669 ± 0.000717
x1 = 0.256 | 0.0115 ± 0.0012
x1 = 0.421 | 0.0174 ± 0.00167
x1 = 0.465 | 0.0179 ± 0.00191
x1 = 0.475 | 0.0179 ± 0.00191
x1 = 0.561 | 0.0165 ± 0.00167
x1 = 0.698 | 0.00932 ± 0.000956
x1 = 0.76 | 0.00693 ± 0.000717

C1CCCCC1 [cyclohexane]
[1]
Settings | vapor or sublimation pressure [kPa]
283.32 K | 6.389 ± 0.023
288.28 K | 8.195 ± 0.026
293.27 K | 10.42 ± 0.031
298.25 K | 13.17 ± 0.037
303.27 K | 16.45 ± 0.046
313.24 K | 24.97 ± 0.062
323.21 K | 36.72 ± 0.086
333.21 K | 52.48 ± 0.12
343.18 K | 72.98 ± 0.15
353.14 K | 99.11 ± 0.2

CCCCCCC [heptane]
[1]
Settings | vapor or sublimation pressure [kPa]
263.45 K | 0.817 ± 0.008
273.27 K | 1.548 ± 0.011
283.21 K | 2.77 ± 0.014
293.25 K | 4.772 ± 0.019
303.15 K | 7.807 ± 0.026
313.12 K | 12.41 ± 0.037
323.1 K | 18.98 ± 0.052
333.07 K | 28.13 ± 0.073
343.04 K | 40.62 ± 0.1
353.01 K | 57.56 ± 0.13

Cc1ccccc1 [toluene]
[1]
Settings | vapor or sublimation pressure
263.64 K | 0.484 ± 0.005 kPa
273.47 K | 0.925 ± 0.009 kPa
283.32 K | 1.68 ± 0.011 kPa
293.24 K | 2.926 ± 0.014 kPa
298.25 K | 3.803 ± 0.016 kPa
303.21 K | 4.896 ± 0.019 kPa
303.23 K | 4.896 ± 0.019 kPa and 4.894 ± 0.019 kPa
313.19 K | 7.872 ± 0.025 kPa
313.22 K | 7.872 ± 0.025 kPa
323.22 K | 12.25 ± 0.035 kPa
333.2 K | 18.57 ± 0.049 kPa
343.16 K | 27.2 ± 0.064 kPa
